Data set [1] concerns HIV-1JR-FL Env mutant K574A pseudovirus. It is filed as cell-based. The settings on record: compared with wild-type HIV-1JR-FL pseudovirus.
The nature of another data set: XTT assay, CHO-WT cells. It is filed as cell-based. The settings on record: Chinese hamster. The method, then: (§1) The in vitro cell viability of NSPD-12m on HIV-1 target cells (U87-CD4-CXCR4, U87-CD4-CCR5, TZM-bl, and MT-2 cells) and HIV effector cells (CHO-WT cells) was analyzed by an XTT colorimetric assay. Briefly, 100 µl of 5 × 10^5/ml cells was mixed and incubated with 100 µl of NSPD-12m at graded concentrations at 37°C for 3 days. Then, 50 µl of XTT solution (1 mg/ml) containing 0.02 µM of phenazinemethosulphate (PMS) was added to each well, and the cells were incubated at 37°C for another 4 h. The absorbance at 450 nm was measured with an ELISA reader. The 50% cytotoxicity concentrations (CC50) were calculated using the CalcuSyn software ([Chou and Talalay, 1984]).
A general note: Formazan colour is commonly taken as a measure of viable cells.

In data set [2] the test system is HIV-1 NL4-3(36G)N42T,N43K. The settings on record: T20-resistant NL4-3(36G)N42T,N43K; p24 ELISA; mean ± SD.
The subject of data set [3] is HIV-1JR-FL Env mutant Q577A pseudovirus. Format: cell-based. The settings on record: compared with wild-type HIV-1JR-FL pseudovirus.
The nature of another data set: XTT assay, TZM-bl cells. Format: cell-based. To be noted: human. The procedure:
as §1

A short description of data set [4]: XTT assay, U87-CD4-CCR5 cells. Format: cell-based. The settings on record: human. The method, then: as §1
For the next data set, the system named is HIV-1 US4 (GS 007). In words: microbe, parasite or virus in culture. It is filed as cell-based. To be noted: Human immunodeficiency virus 1, primary strain US4 (GS 007), luciferase readout, mean ± SD. The method, then:
(§2) The HIV-1 replication-inhibiting activity of compounds was determined as previously described ([Li et al., 2013]). Briefly, 1 × 10^4 TZM-bl or MT-2 cells were infected with primary HIV-1 strains or T20-resistant HIV-1 strains (100 TCID50) in 200 µl of RPMI-1640 medium containing 10% FBS in the presence or absence of compounds at graded concentrations for 12 h. The culture medium was replaced with fresh medium without the compounds. After culture for an additional 48 h, supernatants or cells were collected from each well. For the primary HIV-1 strains, the cells were treated using a luciferase kit. Briefly, the cells were lysed with the lysis reagent and were transferred into a 96-well flat-bottom luminometer plate after three washes with phosphate-buffered saline (PBS) (Costar Corning Inc., Corning, NY), followed by addition of the luciferase substrate included in the luciferase kit (Promega Corp., Madison, WI). The luciferase activity was measured immediately by an Ultra 384 microplate reader (Tecan, Research Triangle Park, NC). T20 was used as a positive control. For the T20-resistant HIV-1 strains, 100 µl of culture supernatant was mixed with 100 µl of 5% Triton X-100. Then, those virus lysates were assayed for p24 antigen by enzyme linked immunosorbent assay (ELISA) as previously described ([Li et al., 2010]). Absorbance at 450 nm was recorded in an ELISA reader (Ultra 384, Tecan). EC50 values were calculated using the computer program CalcuSyn ([Chou and Talalay, 1984]).

For a further data set, the system named is HIV-1 BCF02. In words: microbe, parasite or virus in culture. Format: cell-based. To be noted: Human immunodeficiency virus 1, primary strain BCF02, luciferase readout, mean ± SD. The procedure:
as §2

Another data set relates to HIV-1 93/BR/020. In words: microbe, parasite or virus in culture. It is filed as cell-based. The settings on record: Human immunodeficiency virus 1, primary strain 93/BR/020, luciferase readout, mean ± SD. The procedure:
as §2

The subject of data set [5] is T20-resistant HIV-1 strains. In words: Anti-HIV-1 activity, panel of T20-resistant mutants. Format: cell-based. The settings on record: Human immunodeficiency virus 1; range over T20-resistant mutants; read-out: EC50 values against a series of T20-resistant mutants. The method, then:
as §2, with “Then, those virus lysates were assayed for p24 antigen by enzyme linked immunosorbent assay (ELISA) as previously described ([Li et al., 2010]).” left out

The next data set concerns HIV-1 92UG029. In words: Anti-HIV-1 activity, primary strain 92UG029. It is filed as cell-based. The settings on record: Human immunodeficiency virus 1, luciferase readout, mean ± SD.
The test system of another data set is HIV-1 X4 virus. In words: Cell-cell HIV-1 X4 transmission, MT-2 to CEMx174 5.25 M7 cells. Format: cell-based. To be noted: Human immunodeficiency virus 1; infected MT-2 to CEMx174 5.25 M7 cells; luciferase. The method, then: Inhibition of fusion between MT-2 cells infected by HIV-1 strains (X4 and R5 viruses) with CEMx174 5.25 M7 cells, which express CD4 and both coreceptors, CXCR4 and CCR5, was determined by a luciferase assay. Briefly, MT-2 cells were infected with the corresponding HIV-1 strains for 7 days. The infected MT-2 cells were washed three times and resuspended in culture medium to 2 × 10^5/ml. Then, 50 μl of a compound at graded concentrations in triplicate was incubated with equal volumes of HIV-1-infected MT-2 cells at 37°C for 30 min. Next, 100 μl of CEMx174 5.25 M7 cells (4 × 10^5/ml) was added, and the cells were incubated at 37°C for 3 days. The cells were collected, washed, and lysed with the lysing reagent included in the luciferase kit (Promega, Corp., Madison, Wis). Aliquots of cell lysates were transferred to 96-well flat-bottom luminometer plates (Costar), followed by the addition of luciferase substrate (Promega). Luciferase activity was measured using an Ultra 384 luminometer. ADS-J1 was used as a positive control for all cell–cell fusion assays.

A further data set concerns HIV-1 NL4-3D36G. It is filed as cell-based. The settings on record: T20-sensitive parent strain, p24 ELISA, mean ± SD.

A word on the CC50: it is the concentration that lowers cell viability or growth by half. High values mean better tolerance by the cells, low ones harm at low concentration. The term IC50 denotes the concentration at which inhibition is half-maximal. A word on the IC90: it is the point of the concentration-response curve where the effect stands at 90%. As a reminder, the EC50 is the concentration that produces a half-maximal response. Take `Cc1cc(/C=C2\SC(=S)N(Cc3ccccc3C(F)(F)F)C2=O)c(C)n1-c1ccc(O)c(C(=O)O)c1` [NSPD-12m]: in [1], the “inhibitory activity against K574A mutant pseudovirus” value is recorded as “significant loss”. For the same compound, the 50% cytotoxic concentration (CC50) at 3 days in the data set “XTT assay, CHO-WT cells” came out at 60 ± 13.2 µM; in the data set “XTT assay, TZM-bl cells”, 79 ± 11.4 µM; in [4] it was 84.7 ± 14.5 µM. Besides, the CC90 at 3 days in the data set “XTT assay, CHO-WT cells” came out at 74.6 ± 13.8 µM; in “XTT assay, TZM-bl cells”, 118 ± 18 µM; in data set [4], 102 ± 18.3 µM. Also, the IC50 in [2] was 4.23 ± 1.92 µM; in the data set with HIV-1 US4 (GS 007) (read-out: IC50) it was 2.34 ± 0.353 µM; with HIV-1 BCF02 (read-out: IC50) it was 1.79 ± 0.238 µM; in the data set with HIV-1 93/BR/020, 4.91 ± 0.13 µM; with HIV-1 92UG029, 2.08 ± 0.041 µM; in the data set with HIV-1 NL4-3D36G it was 10.8 ± 1.67 µM. Further, the IC90 in data set [2] was determined as 29.7 ± 2.28 µM; with HIV-1 US4 (GS 007) (read-out: IC90), 5.27 ± 2.73 µM; in the data set with HIV-1 BCF02 (read-out: IC90), 3.48 ± 1.09 µM; in the data set on HIV-1 93/BR/020 (read-out: IC90), 6.76 ± 1.56 µM; in the data set on HIV-1 92UG029, 2.48 ± 0.041 µM; with HIV-1 NL4-3D36G, 55.4 ± 16.9 µM. Further, the “inhibitory activity against Q577A mutant pseudovirus” value in data set [3] is on record as “retained the inhibitory activity”. Further, the EC50 in data set [5] was 15.7 to 24.7 µM; in the data set with HIV-1 X4 virus it was 3.64 ± 0.34 µM.

For the origin of these results see publication PMC6688628, “N-Substituted Pyrrole Derivative 12m Inhibits HIV-1 Entry by Targeting Gp41 of HIV-1 Envelope Glycoprotein” (Frontiers in Pharmacology, 2019).
